From ChEMBL document CHEMBL1201862, “PubChem BioAssay data set” (2004)
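Five compound concentrations were applied to cells in 96-well plates for 48 hours; endpoints were derived by simple linear interpolation of the resulting dose-response curve. GI50 = concentration required for 50% inhibition of growth.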 Activity calls are given as the source filed them. No stated cut-off is given here; in the data, active = GI50 up to about 1.1 µM and inactive = higher.

How the values were obtained:
Test in all cases: NCI anticancer screen, dose series, 48 h
786-0 = system: 786-0
A498 = system: A498
A549 = system: A549
ACHN = system: ACHN
CAKI-1 = system: CAKI-1
CCRF-CEM = system: CCRF-CEM
COLO 205 = system: COLO 205
DLD-1 = system: DLD-1
DMS-114 = system: DMS-114
EKVX = system: EKVX
HCC 2998 = system: HCC 2998
HCT-116 = system: HCT-116
HCT-15 = system: HCT-15
HL-60 = system: HL-60
HOP-18 = system: HOP-18
HOP-62 = system: HOP-62
HOP-92 = system: HOP-92
HT-29 = system: HT-29
IGROV-1 = system: IGROV-1
K562 = system: K562
KM-20L2 = system: KM-20L2
KM12 = system: KM12
LOX IMVI = system: LOX IMVI
LXFL 529 = system: LXFL 529
M14 = system: M14
M19-MEL = system: M19-MEL
MOLT-4 = system: MOLT-4
Malme-3M = system: Malme-3M
NCI-H226 = system: NCI-H226
NCI-H23 = system: NCI-H23
NCI-H460 = system: NCI-H460
NCI-H522 = system: NCI-H522
OVCAR-3 = system: OVCAR-3
OVCAR-4 = system: OVCAR-4
OVCAR-5 = system: OVCAR-5
OVCAR-8 = system: OVCAR-8
RPMI-8226 = system: RPMI-8226
RXF 393 = system: RXF 393
RXF 631 = system: RXF 631
SF-268 = system: SF-268
SF-295 = system: SF-295
SF-539 = system: SF-539
SK-MEL-28 = system: SK-MEL-28
SK-MEL-5 = system: SK-MEL-5
SK-OV-3 = system: SK-OV-3
SN12C = system: SN12C
SNB-19 = system: SNB-19
SNB-75 = system: SNB-75
SNB-78 = system: SNB-78
SR = system: SR
SW-620 = system: SW-620
TK-10 = system: TK-10
U-251 = system: U-251
UACC-257 = system: UACC-257
UACC-62 = system: UACC-62
UO-31 = system: UO-31
DMS-273 = system: DMS-273
SK-MEL-2 = system: SK-MEL-2

Structure (SMILES): CC(=O)C1Cn2c(nc3ccccc32)C[Se]1 (stereo not given)
- GI50 (786-0): 3.32 µM (inactive)
- GI50 (A498): 17.7 µM (inactive)
- GI50 (A549): 19.8 µM (inactive)
- GI50 (ACHN): 3.39 µM (inactive)
- GI50 (CAKI-1): 2.19 µM (inactive)
- GI50 (CCRF-CEM): 3.49 µM (inactive)
- GI50 (COLO 205): 16.5 µM (inactive)
- GI50 (DLD-1): 3.63 µM (inactive)
- GI50 (DMS-114): 2.12 µM (inactive)
- GI50 (EKVX): 15 µM (inactive)
- GI50 (HCC 2998): 10.3 µM (inactive)
- GI50 (HCT-116): 2.2 µM (inactive)
- GI50 (HCT-15): 4.56 µM
- GI50 (HL-60): 2.47 µM (inactive)
- GI50 (HOP-18): 2.61 µM (inactive)
- GI50 (HOP-62): 2.37 µM (inactive)
- GI50 (HOP-92): 2.09 µM (inactive)
- GI50 (HT-29): 7.48 µM (inactive)
- GI50 (IGROV-1): 2.22 µM (inactive)
- GI50 (K562): 4.23 µM (inactive)
- GI50 (KM-20L2): 12.9 µM (inactive)
- GI50 (KM12): 3.4 µM (inactive)
- GI50 (LOX IMVI): 4.29 µM (inactive)
- GI50 (LXFL 529): 3.2 µM (inactive)
- GI50 (M14): 2.3 µM (inactive)
- GI50 (M19-MEL): 1.99 µM (inactive)
- GI50 (MOLT-4): 2.29 µM (inactive)
- GI50 (Malme-3M): 2.47 µM (inactive)
- GI50 (NCI-H226): 3.72 µM (inactive)
- GI50 (NCI-H23): 2.75 µM (inactive)
- GI50 (NCI-H460): 4.15 µM (inactive)
- GI50 (NCI-H522): 3.28 µM (inactive)
- GI50 (OVCAR-3): 2.22 µM (inactive)
- GI50 (OVCAR-4): 3.44 µM (inactive)
- GI50 (OVCAR-5): 3.05 µM (inactive)
- GI50 (OVCAR-8): 4.09 µM (inactive)
- GI50 (RPMI-8226): 25.3 µM (inactive)
- GI50 (RXF 393): 2.34 µM (inactive)
- GI50 (RXF 631): 2.14 µM (inactive)
- GI50 (SF-268): 3.85 µM (inactive)
- GI50 (SF-295): 3.26 µM (inactive)
- GI50 (SF-539): 2.29 µM (inactive)
- GI50 (SK-MEL-28): 2.98 µM (inactive)
- GI50 (SK-MEL-5): 2 µM (inactive)
- GI50 (SK-OV-3): 19.5 µM (inactive)
- GI50 (SN12C): 4.43 µM (inactive)
- GI50 (SNB-19): 5 µM (inactive)
- GI50 (SNB-75): 2.55 µM (inactive)
- GI50 (SNB-78): 4.47 µM (inactive)
- GI50 (SR): 3.1 µM (inactive)
- GI50 (SW-620): 5.28 µM (inactive)
- GI50 (TK-10): 4.41 µM (inactive)
- GI50 (U-251): 2 µM (inactive)
- GI50 (UACC-257): 2.48 µM (inactive)
- GI50 (UACC-62): 1.97 µM (inactive)
- GI50 (UO-31): 3.1 µM (inactive)

Structure (SMILES): Cc1ccc2nc3c(C)cc(=O)cc-3sc2c1
- GI50 (786-0): 18.7 µM (inactive)
- GI50 (A549): 20.1 µM (inactive)
- GI50 (ACHN): 17.7 µM (inactive)
- GI50 (CAKI-1): 19.3 µM (inactive)
- GI50 (CCRF-CEM): 10.5 µM (inactive)
- GI50 (COLO 205): 27.6 µM (inactive)
- GI50 (DLD-1): 30.3 µM (inactive)
- GI50 (DMS-114): 17.5 µM (inactive)
- GI50 (DMS-273): 27.9 µM (inactive)
- GI50 (EKVX): 28.2 µM (inactive)
- GI50 (HCC 2998): 26.9 µM (inactive)
- GI50 (HCT-116): 17.3 µM (inactive)
- GI50 (HCT-15): 16 µM
- GI50 (HL-60): 2.45 µM (inactive)
- GI50 (HOP-18): 56.6 µM (inactive)
- GI50 (HOP-62): 27.5 µM (inactive)
- GI50 (HOP-92): 34.2 µM (inactive)
- GI50 (HT-29): 36.2 µM (inactive)
- GI50 (IGROV-1): 31.8 µM (inactive)
- GI50 (K562): 12.6 µM (inactive)
- GI50 (KM-20L2): 43.5 µM (inactive)
- GI50 (KM12): 22.9 µM (inactive)
- GI50 (LXFL 529): 17.9 µM (inactive)
- GI50 (M14): 19.6 µM (inactive)
- GI50 (M19-MEL): 15.9 µM (inactive)
- GI50 (MOLT-4): 12.6 µM (inactive)
- GI50 (Malme-3M): 27.3 µM (inactive)
- GI50 (NCI-H226): 24.8 µM (inactive)
- GI50 (NCI-H23): 20.8 µM (inactive)
- GI50 (NCI-H460): 23.4 µM (inactive)
- GI50 (NCI-H522): 17.8 µM (inactive)
- GI50 (OVCAR-3): 22 µM (inactive)
- GI50 (OVCAR-4): 16.7 µM (inactive)
- GI50 (OVCAR-5): 27.9 µM (inactive)
- GI50 (OVCAR-8): 22.8 µM (inactive)
- GI50 (RXF 631): 31.2 µM (inactive)
- GI50 (SF-268): 25.6 µM (inactive)
- GI50 (SF-295): 31.5 µM (inactive)
- GI50 (SF-539): 18.9 µM (inactive)
- GI50 (SK-MEL-28): 25.9 µM (inactive)
- GI50 (SK-MEL-2): 20 µM (inactive)
- GI50 (SK-MEL-5): 15.5 µM (inactive)
- GI50 (SK-OV-3): 59.6 µM (inactive)
- GI50 (SN12C): 21.3 µM (inactive)
- GI50 (SNB-19): 38.1 µM (inactive)
- GI50 (SNB-75): 32.7 µM (inactive)
- GI50 (SNB-78): 32.5 µM (inactive)
- GI50 (SR): 19.1 µM (inactive)
- GI50 (SW-620): 17.2 µM (inactive)
- GI50 (TK-10): 22.7 µM (inactive)
- GI50 (U-251): 31.8 µM (inactive)
- GI50 (UACC-257): 20.2 µM (inactive)
- GI50 (UACC-62): 14.1 µM (inactive)
- GI50 (UO-31): 32 µM (inactive)
